Measured values published in patent US20210255193A1, “LYSINE REACTIVE PROBES AND USES THEREOF” (The Scripps Research Institute, priority 2017, published 2021).

Experiments:
PLIN3 Perilipin-3 = target: T1, PLIN3 Perilipin-3 (Homo sapiens, UniProt O60664); assay: competitive isoTOP-ABPP; assay type: binding; design: key to isoTOP-ABPP reactivity ratio at lysine O60664_K257 / isoTOP-ABPP reactivity ratio at lysine O60664_K140: R = MS1 peak area ratio, DMSO (heavy) / compound-treated (light); capped at 20; details: for isoTOP-ABPP reactivity ratio at lysine O60664_K140 / isoTOP-ABPP reactivity ratio at lysine O60664_K257 / R value (DMSO/fragment) for probe 1 labeling / isoTOP-ABPP ratio (R) at liganded lysine O60664_K257 / isoTOP-ABPP ratio (R) at liganded lysine O60664_K140: 50 uM, in vitro; for isoTOP-ABPP reactivity ratio at lysine O60664_K140 / isoTOP-ABPP reactivity ratio at lysine O60664_K257 / R value (DMSO/fragment) for probe 1 labeling: 231 sol; for isoTOP-ABPP ratio (R) at liganded lysine O60664_K257 / isoTOP-ABPP ratio (R) at liganded lysine O60664_K140: sol, 231
T1 construct: isoTOP-ABPP experiments performed in cell lysates (in vitro); endogenous in cells; host or cells: MDA-MB-231 soluble lysate
T1 sequence (O60664 1-434): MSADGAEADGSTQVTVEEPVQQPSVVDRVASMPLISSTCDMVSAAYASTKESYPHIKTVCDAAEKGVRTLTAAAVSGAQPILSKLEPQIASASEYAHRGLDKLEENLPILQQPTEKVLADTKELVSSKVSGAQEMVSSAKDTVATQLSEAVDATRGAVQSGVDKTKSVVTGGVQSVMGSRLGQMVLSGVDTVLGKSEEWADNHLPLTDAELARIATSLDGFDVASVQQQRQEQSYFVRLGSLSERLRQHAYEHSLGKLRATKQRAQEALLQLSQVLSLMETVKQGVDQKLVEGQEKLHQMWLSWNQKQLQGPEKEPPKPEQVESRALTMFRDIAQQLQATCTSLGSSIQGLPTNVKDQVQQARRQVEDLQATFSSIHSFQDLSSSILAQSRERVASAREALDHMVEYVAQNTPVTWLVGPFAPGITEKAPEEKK
Method: (§1) In vitro covalent fragment treatment for isoTOP-ABPP. All compounds were made up as solutions in DMSO (100×) and were used at a final concentration of 50 μM for activated esters and 100 μM for guanidinylating agents. For each profiling sample, 0.5 ml of lysate was treated with 5 μl of the 100× compound stock solution or 5 μl of DMSO. Samples were treated with activated esters for
(§2) STP-alkyne labeling and click chemistry. For concentration-dependent reactivity measurements by isoTOP-ABPP, 0.5 ml proteome aliquots were treated at ambient temperature with 1 mM STP-alkyne 1 (5 μl of 100 mM stock in DMSO) and 0.1 mM STP alkyne 1 (5 μl of 10 mM stock in DMSO), respectively. For competitive isoTOP-ABPP, after in vitro fragment treatment (detailed above), the samples were labeled for 1 h at ambient temperature with 0.1 mM STP-alkyne 1 (5 μl of 10 mM stock in DMSO). Samples were conjugated by copper-mediated azide-alkyne cycloaddition (CuAAC) to either the light (1 mM STP-alkyne or fragment treated) or heavy (0.1 mM STP-alkyne or DMSO treated) TEV tags (10 μl of 5 mM stocks in DMSO, final concentration=100 μM) using tris(2-carboxyethyl)phosphine hydrochloride
(§3) R value calculation and processing. The ratios of light and heavy MS1 peaks for each unique peptide were quantified with a CIMAGE software using default parameters (3 MS1 acquisitions per peak and signal to noise threshold set to 2.5). For reactivity measurements by isoTOP-ABPP, the R value was calculated from the ratio of MS1 peak areas, comparing the 1 mM STP alkyne sample (light TEV tag) with the 0.1 mM STP alkyne sample (heavy TEV tag). For competitive isoTOP-ABPP, the R value was calculated from the ratio of MS1 peak areas, comparing the DMSO treated sample (heavy TEV tag) with the compound treated sample (light TEV tag). […] Ratios for unique peptide entries are calculated for each experiment; overlapping peptides with the same modified lysine (for example, different charge states, MudPIT chromatographic steps or tryptic termini) are grouped together and the median ratio is reported as the final ratio (R). The peptide ratios reported by CIMAGE were further filtered to ensure the removal or correction of low-quality ratios in each individual data set. The quality filters applied were the following: removal of half tryptic peptides; for ratios with high standard deviations from the median (90% of the median or above) the lowest ratio was taken instead of the median; removal of peptides with R=20 and only a single MS2 event triggered during the elution of the parent ion; manual annotation of all the peptides with ratios of 20, removing any peptides with low quality elution profiles that remained after the previous curation steps (only done for competitive isoTOP-ABPP).
(§4) Cross-data processing for fragment screening. For compound treated samples, biological replicates of the same condition were averaged, if the standard deviation was below 60% of the mean; otherwise, for lysines with at least one R value <4 for a particular compound, the lowest value of the ratio set was taken. For lysines, where all R values for a particular compound were ≥4, the average was reported. For peptides containing several possible modified lysines, the lysine with the highest number of quantification events was used for analysis and the remaining, redundant peptides were reported as alternative modification sites. Peptides included in the aggregate dataset (those used for further bioinformatics and statistical analyses) were required to have been quantified in 2 experiments for competitive isoTOP-ABPP. Lysines were categorized as liganded, if they had at least one ratio R≥4 (hit fragments). For liganded lysines with R=20 for all liganding events, lysines were required to have been quantified with R=20 in two separate experiments and were further required to have been quantified with R<20 in one additional experiment.

[1] = target: T2, CPOX Coproporphyrinogen-III oxidase, mitochondrial (Homo sapiens, UniProt P36551); assay: competitive isoTOP-ABPP; assay type: binding; design: key to isoTOP-ABPP reactivity ratio at lysine P36551_K404: R = MS1 peak area ratio, DMSO (heavy) / compound-treated (light); details: for isoTOP-ABPP reactivity ratio at lysine P36551_K404 / R value (DMSO/fragment) for probe 1 labeling / isoTOP-ABPP ratio (R) at liganded lysine P36551_K404: 50 uM, in vitro; for isoTOP-ABPP reactivity ratio at lysine P36551_K404 / R value (DMSO/fragment) for probe 1 labeling: 231 sol; for R value (DMSO/fragment) for probe 1 labeling: P36551_K404; for isoTOP-ABPP ratio (R) at liganded lysine P36551_K404: sol, 231
T2 construct: isoTOP-ABPP experiments performed in cell lysates (in vitro); endogenous in cells; host or cells: soluble proteome of human cancer cell lines (MDA-MB-231; Ramos and Jurkat also prepared)
T2 sequence (P36551 111-454): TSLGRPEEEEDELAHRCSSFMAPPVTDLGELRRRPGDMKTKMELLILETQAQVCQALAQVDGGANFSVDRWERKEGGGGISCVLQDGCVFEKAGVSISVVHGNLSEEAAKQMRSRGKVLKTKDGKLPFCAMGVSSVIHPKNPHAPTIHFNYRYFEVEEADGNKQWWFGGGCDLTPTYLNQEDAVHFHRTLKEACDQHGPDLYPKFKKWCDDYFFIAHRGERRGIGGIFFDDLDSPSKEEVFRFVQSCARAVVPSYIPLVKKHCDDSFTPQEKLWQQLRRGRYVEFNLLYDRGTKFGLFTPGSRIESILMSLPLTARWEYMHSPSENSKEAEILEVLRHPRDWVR
Method: as §1, §2, §3, §4

## O=C(CN1C(=O)c2ccccc2C1=O)Oc1c(F)c(F)c(F)c(F)c1F [fragment 27, Pentafluorophenyl 2-(1,3-dioxoisoindolin-2-yl)acetate]
PLIN3 Perilipin-3
  isoTOP-ABPP reactivity ratio at lysine O60664_K140: 1.9
  isoTOP-ABPP reactivity ratio at lysine O60664_K257: 1.8
[1]
  isoTOP-ABPP reactivity ratio at lysine P36551_K404: 1.2

## O=C(CCc1cn(-c2ccccc2)nc1-c1ccccc1)Oc1c(F)c(F)c(F)c(F)c1F [fragment 19, Pentafluorophenyl 3-(1,3-diphenyl-1H-pyrazol-4-yl)propanoate]
PLIN3 Perilipin-3; O60664_K140
  R value (DMSO/fragment) for probe 1 labeling: 1.5
PLIN3 Perilipin-3; O60664_K257
  R value (DMSO/fragment) for probe 1 labeling: 2.2
[1]
  R value (DMSO/fragment) for probe 1 labeling: 10.8

## COc1cc(CCC(=O)Oc2ccc([N+](=O)[O-])cc2[N+](=O)[O-])cc(OC)c1OC [fragment 33, 2,4-Dinitrophenyl 3-(3,4,5-trimethoxyphenyl)propanoate]
PLIN3 Perilipin-3
  isoTOP-ABPP reactivity ratio at lysine O60664_K140: 1.1
  isoTOP-ABPP reactivity ratio at lysine O60664_K257: 2.2
[1]
  isoTOP-ABPP reactivity ratio at lysine P36551_K404: 1.0

## O=C(Oc1ccc([N+](=O)[O-])cc1[N+](=O)[O-])C(c1ccccc1)c1ccccc1 [fragment 30, 2,4-Dinitrophenyl 2,2-diphenylacetate]
PLIN3 Perilipin-3
  isoTOP-ABPP reactivity ratio at lysine O60664_K140: 4.5
  isoTOP-ABPP reactivity ratio at lysine O60664_K257: 2.9
[1]
  isoTOP-ABPP reactivity ratio at lysine P36551_K404: 1.1

## O=C(CCc1cn(-c2ccccc2)nc1-c1ccccc1)Oc1ccc([N+](=O)[O-])cc1[N+](=O)[O-] [fragment 29, 2,4-Dinitrophenyl 3-(1,3-diphenyl-1H-pyrazol-4-yl)propanoate]
PLIN3 Perilipin-3
  isoTOP-ABPP reactivity ratio at lysine O60664_K140: 2.1
  isoTOP-ABPP reactivity ratio at lysine O60664_K257: 3.5
[1]
  isoTOP-ABPP reactivity ratio at lysine P36551_K404: 18.1

## O=C(Oc1c(F)c(F)cc(F)c1F)c1cc(C(F)(F)F)cc(C(F)(F)F)c1 [fragment 48, 2,3,5,6-Tetrafluorophenyl 3,5-bis(trifluoromethyl)benzoate]
PLIN3 Perilipin-3; 50 uM_231_sol_in vitro
  isoTOP-ABPP ratio, lysine O60664_K140: 1.3
[1]; 50 uM_231_sol_in vitro
  isoTOP-ABPP ratio, lysine P36551_K404: 1.0

## CC(C)(C)OC(=O)N=C(NC(=O)OC(C)(C)C)n1cccn1 [fragment 50, reference compound]
PLIN3 Perilipin-3; 100 uM_231_sol_in vitro
  isoTOP-ABPP ratio, lysine O60664_K140: 1.8
[1]; 100 uM_231_sol_in vitro
  isoTOP-ABPP ratio, lysine P36551_K404: 1.8

## N#Cc1ccc(C(=O)Oc2ccc([N+](=O)[O-])cc2[N+](=O)[O-])cc1 [fragment 44, 2,4-Dinitrophenyl 4-cyanobenzoate]
PLIN3 Perilipin-3; 50 uM_231_sol_in vitro
  isoTOP-ABPP ratio, lysine O60664_K257: 1.9
[1]; 50 uM_231_sol_in vitro
  isoTOP-ABPP ratio, lysine P36551_K404: 1.0

## O=C(Oc1ccc([N+](=O)[O-])cc1[N+](=O)[O-])c1ccc(-c2ccccc2)cc1 [fragment 37, 2,4-Dinitrophenyl [1,1′-biphenyl]-4-carboxylate]
PLIN3 Perilipin-3
  isoTOP-ABPP ratio (R) at liganded lysine O60664_K257: 3.5
[1]
  isoTOP-ABPP ratio (R) at liganded lysine P36551_K404: 1.0

## O=C(CCc1ccc2c(c1)OCO2)Oc1ccc([N+](=O)[O-])cc1[N+](=O)[O-] [fragment 45, 2,4-Dinitrophenyl 3-(benzo[d][1,3]dioxol-5-yl)propanoate]
PLIN3 Perilipin-3; 50 uM_231_sol_in vitro
  isoTOP-ABPP ratio, lysine O60664_K140: 2.1
  isoTOP-ABPP ratio, lysine O60664_K257: 2.5
[1]; 50 uM_231_sol_in vitro
  isoTOP-ABPP ratio, lysine P36551_K404: 1.2

## COC(=O)NC(=NC(=O)OCC1c2ccccc2-c2ccccc21)n1cccn1 [fragment 49, N-Methoxycarbonyl-N′-9-fluorenylmethoxycarbonyl-pyrazole-1-carboxamidine]
PLIN3 Perilipin-3; 100 uM_231_sol_in vitro
  isoTOP-ABPP ratio, lysine O60664_K140: 3.0
[1]; 100 uM_231_sol_in vitro
  isoTOP-ABPP ratio, lysine P36551_K404: 2.5

## O=C(Oc1c(F)c(F)c(F)c(F)c1F)C(c1ccccc1)c1ccccc1 [fragment 20, Pentafluorophenyl 2,2-diphenylacetate]
PLIN3 Perilipin-3; O60664_K257
  R value (DMSO/fragment) for probe 1 labeling: 2.5
[1]
  R value (DMSO/fragment) for probe 1 labeling: 1.1

## O=C(Oc1ccc([N+](=O)[O-])cc1[N+](=O)[O-])c1ccc2ccccc2n1 [fragment 35, 2,4-Dinitrophenyl quinoline-2-carboxylate]
PLIN3 Perilipin-3
  isoTOP-ABPP ratio (R) at liganded lysine O60664_K140: 1.1
  isoTOP-ABPP ratio (R) at liganded lysine O60664_K257: 1.2
[1]
  isoTOP-ABPP ratio (R) at liganded lysine P36551_K404: 1.2

## CCn1cc(C(=O)Oc2c(F)c(F)c(F)c(F)c2F)c(=O)c2ccc(C)nc21 [fragment 28, Pentafluorophenyl 1-ethyl-7-methyl-4-oxo-1,4-dihydro-1,8-naphthyridine-3-carboxylate]
PLIN3 Perilipin-3
  isoTOP-ABPP reactivity ratio at lysine O60664_K140: 1.2
  isoTOP-ABPP reactivity ratio at lysine O60664_K257: 1.1
[1]
  isoTOP-ABPP reactivity ratio at lysine P36551_K404: 0.9

## O=C(Oc1c(F)c(F)c(F)c(F)c1F)c1cc(C(F)(F)F)cc(C(F)(F)F)c1 [fragment 21, Pentafluorophenyl 3,5-bis(trifluoromethyl)benzoate]
PLIN3 Perilipin-3; O60664_K257
  R value (DMSO/fragment) for probe 1 labeling: 2.0
[1]
  R value (DMSO/fragment) for probe 1 labeling: 1.0

## CC(C)(C)OC(=O)NCCCC(=O)Oc1ccc([N+](=O)[O-])cc1[N+](=O)[O-] [fragment 41, 2,4-Dinitrophenyl 4-((tert-butoxycarbonyl)amino)butanoate]
PLIN3 Perilipin-3
  isoTOP-ABPP ratio (R) at liganded lysine O60664_K140: 2.1
[1]
  isoTOP-ABPP ratio (R) at liganded lysine P36551_K404: 1.0

## O=C(Oc1c(F)c(F)c(F)c(F)c1F)C1CCN(C(=O)OCc2ccccc2)CC1 [fragment 24, 1-Benzyl 4-(pentafluorophenyl) piperidine-1,4-dicarboxylate]
PLIN3 Perilipin-3
  isoTOP-ABPP reactivity ratio at lysine O60664_K140: 1.7
[1]
  isoTOP-ABPP reactivity ratio at lysine P36551_K404: 1.2

## O=C(Oc1ccc([N+](=O)[O-])cc1[N+](=O)[O-])c1ccc(Oc2ccccc2)cc1 [fragment 39, 2,4-Dinitrophenyl 4-phenoxybenzoate]
PLIN3 Perilipin-3
  isoTOP-ABPP ratio (R) at liganded lysine O60664_K140: 2.0
  isoTOP-ABPP ratio (R) at liganded lysine O60664_K257: 2.2
[1]
  isoTOP-ABPP ratio (R) at liganded lysine P36551_K404: 1.0
